In patent US20120009152A1, “NITRIC OXIDE DONORS FOR TREATMENT OF DISEASE AND INJURY” (priority 2002, published 2012):

Key:
Format in all cases: in vivo, rat
[1] = tested on: rats subjected to middle cerebral artery occlusion (MCAo); assay: Adhesive Removal Test after MCAo, combination study; details: treatment 1 day after stroke; NN 0.4 mg/kg IP, hMSCs 1×10^6 cells iv; vs control
Method: Male Wistar rats (n=32) were subjected to middle cerebral artery occlusion (MCAo) and were randomized with 8 rats in four treatment groups, with treatment initiated 1 day after stroke. Groups included: 1) phosphate buffered saline (PBS); 2) subtherapeutic DETA-NONOate (NN) at a dose of 0.4 mg/kg (IP); 3) subtherapeutic hMSCs (1×10^6 cells-iv); and 4) combination subtherapeutic NN and hMSCs. Functional outcome measurements consisted of a Neurologic Severity Scale (18 point scale) (NSS) and the Adhesive Removal Test performed prior to stroke, immediately before treatment and at 7 and 14 days after treatment. […] However, there was an overall hMSC effect on NSS at 14 days.

[2] = tested on: BrdU immunoreactive cells in dentate gyrus, SVZ and OB; assay: Cell proliferation (BrdU) in non-ischemic young adult rats
Method: The effects of an NO donor administered to normal young adult rats on the induction of cell proliferation within three regions of brain, the dentate gyrus, the olfactory bulb (OB) and the subventricular zone (SVZ) were tested. […] Young male Wister rats (3-4 month old) received 4 consecutive). I.V bolus doses of DETA/NONOate (0.1 mg/kg each, every 15 min, and total dose of 0.4 mg/kg) on the first experimental day and DETA/NONOate (0.4 mg/kg) was administered (i.p) daily for an additional 6 consecutive days. Rats that received saline were used as a control group. Bromodeoxyuridine (BrdU) was used as mitotic labeling to measure cell proliferation. Animals received daily i.p injections of BrdU (50 mg/kg, Sigma) on the first experimental day and subsequently for 14 consecutive days. Rats were sacrificed at 14 and 42 days after the treatment. BrdU immunoreactive nuclei were counted on a computer monitor to improve visualization and in one focal plane to avoid over-sampling. Structures were sampled either by selecting predetermined areas on each section (OB) or by analyzing entire structures on each section (SVZ and dentate gyrus) (Zhang et al., 2001). All BrdU immunoreactive-positive nuclei in these areas are presented as the number of the BrdU immunoreactive cells/mm^2. Density for the selected several sections was averaged to obtain a mean density value for each animal (Zhang et al., 2001).

[3] = tested on: BrdU-immunoreactive cells in the subventricular zone and dentate gyrus; assay: BrdU cell proliferation in subventricular zone and dentate gyrus after embolic MCA occlusion; details: 28 days
Method: Male Wistar rats weighing 320 to 380 g were used in the present study. The middle cerebral artery (MCA) was occluded by placement of an embolus at the origin of the MCA. […] Ischemic rats (n=9) were treated with the same volume of tap water as a control group. Functional tests were performed and body weight was measured before ischemia and at 4, 7, 14, 21, and 28 days after onset of MCA occlusion. All rats were killed 28 days after MCA occlusion. […] These rats were killed 1 hour after the last treatment for measurements of brain levels of cGMP. […] Reverse transcription (RT)-polymerase chain reaction (PCR) was performed to detect PDE5 in brain tissue. Bromodeoxyuridine (BrdU) was used to measure cell proliferation. Animals received daily intraperitoneal injections of BrdU (50 mg/kg; Sigma) on the day of stroke and subsequently for 14 consecutive days. Cell proliferation in the subventricular zone and dentate gyrus was measured in rats killed at 28 days (in experimental protocol 1, all 4 groups) after ischemia. […] Sections were incubated with a primary antibody to BrdU (1:100) at room temperature for 1 hour and then incubated with biotinylated secondary antibody (1:200, Vector) for 1 hour. Reaction product was detected with the use of 3′3′-diaminobenzidine-tetrahydrochloride (DAB; Sigma), For ′III-tubulin (TuJ1) immunostaining, which identifies immature neurons, 12 coronal sections were incubated with the antibody against TuJ1 (1:1000) at 4° C. overnight and were then incubated with a biotinylated horse anti-mouse immunoglobulin antibody at room temperature for 30 minutes. Double immunofluorescent staining for BrdU and TuJ1 as performed to determine whether BrdU-immunoreactive cells express neuronal phenotype on the coronal sections. Measurements of BrdU-immunoreactive cells were performed on paraffin-embedded 6-μm-thick sections. 11 BrdU-immunostained sections were digitized with the use of a 40 objective (Olympus BX40) via the MCID computer imaging analysis system (Imaging Research). BrdU-immunoreactive nuclei were counted on a computer monitor to improve visualization and in 1 focal plane to avoid oversampling. All BrdU-immunoreactive-positive nuclei were counted in both the ipsilateral and contralateral walls of the lateral ventricle of the subventricular zone and in the dentate gyrus. […] For the dentate gyrus, every 50th coronal section was selected from each rat for a total of 8 sections between anteroposterior 5.86 mm and anteroposterior 2.96 mm of the granule cell layer. BrdU-immunoreactive nuclei in the subventricular zone and in the dentate gyrus are presented as the number of the cells per square millimeter (mean SE). […] Numbers of TuJ1-immunoreactive cells were counted in the subventricular one and striatum, and data are presented as the number of TuJ1-immunoreactive cells per section (mean SE).

[4] = Sildenafil 2 mg/kg from 2 h after MCA occlusion
[5] = Sildenafil 2 mg/kg from 24 h after MCA occlusion
[6] = Sildenafil 5 mg/kg from 2 h after MCA occlusion

SMILES | Adhesive-Removal test score at 14 days [1] | numbers of BrdU reactive cells within the dentate gyrus, SVZ and OB ([2]; non-ischemic young adult rats (3-4 month old), DETA/NONOate 0.4 mg/kg daily 7 days, 14 and 42 days, vs saline) | newly generated cells within the dentate gyrus exhibiting neuronal markers NeuN and MAP2 ([2]; non-ischemic young adult rats administered DETA/NONO-ate) | Density of newborn cells, Dentate Gyrus Contralateral [3, 4] [cells per mm^2] | Density of newborn cells, Dentate Gyrus Ipsilateral [3, 4] [cells per mm^2] | Density of newborn cells, Subventricular Zone Contralateral [3, 4] [cells per mm^2] | Density of newborn cells, Dentate Gyrus Contralateral [3, 5] [cells per mm^2] | Density of newborn cells, Dentate Gyrus Ipsilateral [3, 5] [cells per mm^2] | Density of newborn cells, Subventricular Zone Contralateral [3, 5] [cells per mm^2] | Density of newborn cells, Subventricular Zone Ipsilateral [3, 5] [cells per mm^2] | Density of newborn cells, Subventricular Zone Ipsilateral ([3]; Sildenafil 2 mg/kg oral daily 7 days from 2 h after MCA occlusion) [cells per mm^2] | Density of newborn cells, Dentate Gyrus Contralateral [3, 6] [cells per mm^2] | Density of newborn cells, Dentate Gyrus Ipsilateral [3, 6] [cells per mm^2] | Density of newborn cells, Subventricular Zone Contralateral [3, 6] [cells per mm^2] | Density of newborn cells, Subventricular Zone Ipsilateral [3, 6] [cells per mm^2]
NCCN(CCN)/[N+]([O-])=N/O [DETANONOate, (Z)-1-[N-(2-aminoethyl)-N-(2-ammonioethyl)aminio]diazen-1-ium-1,2-diolate] | no significant improvement | Statistically significant increased | More than 95% |  |  |  |  |  |  |  |  |  |  |  | 
CCCc1nn(C)c2c(=O)[nH]c(-c3cc(S(=O)(=O)N4CCN(C)CC4)ccc3OCC)nc12 [Sildenafil] |  |  |  | 55 ± 2.10 | 55 ± 3.99 | 296 ± 19.74 | 56 ± 4.76 | 57 ± 4.21 | 295 ± 24.54 | 374 ± 16.07 | 383 ± 23.44 | 58 ± 5.38 | 59 ± 5.26 | 312 ± 23.79 | 437 ± 32.97
